The values that follow come from US11179380B2, “Compounds and compositions for use in treating psoriasis” (SOLVOTRIN THERAPEUTICS LTD, priority 2017, dated 2021).

A word on the chromatographic logP: it is a lipophilicity value derived from retention on a column.

A short description of one series: physchem. As to conditions: for Rm: calculated from Rf. Here is the method:
The partition coefficient (P) is used to describe the lipophilicity of a drug. It is defined as the ratio of equilibrium concentrations of a drug in an organic phase (Corg) and an aqueous phase (Caq).
Most commonly the organic solvent is n-octanol and the other solvent is water. Hydrophobic molecules will have a high P value while hydrophilic molecules will have a low P value.
Rm values were calculated from Rf values that were obtained at three different mobile phase compositions (40, 50 and 60% MeOH in water).
The Rm value was calculated using the following equation: […]
The theoretical Rm value at 0% organic modifier was calculated by extrapolating from the calibration curves that were obtained. These values were then correlated to the literature log P of two reference compounds (methyl benzoate and paracetamol).

The test system of a further series is Aldara-treated mice. Description: Aldara-induced model of psoriasis in mice, clinical scoring (PASI). Format: in vivo, mice (C57BL/6J). The protocol:
Specific Pathogen-Free female C57BL/6J strain mice, 6-8 weeks of age, were obtained from a commercial supplier and bred in-house (JAX, Charles River). Mice were fed irradiated diet and housed in individually ventilated cages (Tecniplast, UK) under positive pressure. All animal experiments were performed in compliance with the Health Products Regulatory Authority and approved by the Trinity College Dublin's BioResources ethical review board.
The Aldara-induced model of psoriasis was used (Flutter and Nestle, 2013; Morwietz, 2015; Russell et al., 2013; van der Fits et al., 2009). The dorsal skin of mice was shaved and depilated on day −1. Mice were that were in the telogen phase (resting phase) of the hair cycle were chosen for experiments. Mice with visual skin damage from shaving were excluded. Mice were then randomly divided into groups for treatment with topical application of vehicle (white petroleum jelly) or Solvotrin test compounds, prepared in white petroleum jelly. On day 0, mice were scored for disease signs, as per below. After which 62.5 mg of Aldara™ cream (5% Imiquimod; MEDA Pharmaceuticals) was applied to a defined area of the shaved dorsal skin surface. Thirty minutes after the Aldara application, test compounds or vehicle was applied to the dorsal flank, to cover the entire Aldara-challenged surface, with an even layer of the white petroleum. This process was repeated for a further 5 days. Mice were scored daily. On day 6 the mice were euthanized for tissue collection.
The skin of mice was scored for signs of psoriasis-like inflammation for a total of 7 days, (i.e. days 0-6), as described (van der Fits et al., 2009). Mice were scored according to 3 parameters: erythema (the redness of skin); thickening of the skin; and scaling (dryness and flaking of the skin). For each parameter, the mice were scored on a scale from 0-4. Mice with no pathology were scored 0. Mice with mild pathology scored 1. […] The total, or Psoriasis Area and Severity Index (PASI), score was the cumulative score of all three parameters. Therefore for each mouse studied the PASI score can range between 0 to 12.
Power calculations on data from previous studies have shown that a sample size of at least 6 will detect significant difference (P<0.05) in PASI scores between groups. ANOVA and Dunnett Multiple Comparison Test determined statistical differences between multiple groups. Two tailed Student's t-test was used to compare statistical differences between two groups.
Unless otherwise specified percentage concentration of a test compound in a composition refers to the weight percent of said test compound in the composition. For example, application of 2% compound X, means application of a composition comprising 2 weight percent of compound X.

The test system of series [1] is Peripheral Blood Mononuclear Cells (PBMCs). In words: Cytokine-expressing cells in stimulated PBMC (anti-CD3, PMA and ionomycin), flow cytometry. Format: cell-based, human. Here is the method:
PBMC were isolated from leukocyte-enriched buffy coats obtained from anonymous healthy donors with consent from the Irish Blood Transfusion Service, St James' Hospital, Dublin, Ireland. PBMC were pre-treated with test compounds or a vehicle control at the indicated concentrations for 6 hours prior to stimulation by anti-CD3 for 4 days and re-stimulated with PMA and ionomycin for 6 hours. Thereafter cells were counted using flow cytometry.
In general terms: A flow cytometer gives signals particle by particle.

In the next series the test system is Primary human DC. Description: Cytokine concentrations in LPS-stimulated monocyte-derived dendritic cells, ELISA. As to conditions: LPS 24 hours. Format: cell-based. The protocol:
Primary human DC were produced from CD14+ monocytes isolated from healthy human PBMC via magnetic cell sorting. Monocyte-derived DC were pre-treated with test compounds or a vehicle control for 6 hours prior to stimulation by LPS for 24 hours. Cytokine concentrations in cell supernatants were determined by ELISA (eBiosciences).

Another series relates to normal healthy skin. In words: Assessment of erythema and itchiness after topical application to shaved forearm. Format: in vivo. The protocol:
Test article dispersed in petroleum jelly was applied to a 2×2 cm patch of shaved forearm (n=3). At specified time intervals the degree of erythema was recorded by blinded observers on a scale of 1-4 (n=3). Itchiness was observed by scratching behaviour also by blinded observers on a scale of 1-4. The time course of erythema resolution was recorded at 30 minute intervals.

[2] abbreviates: activated T-cells, various concentrations.

Molecule `CC(=O)Oc1ccccc1C(=O)O[C@H]1COC2C1OC[C@H]2OC(=O)c1cccnc1` (stereo partly drawn) [ST0702, Isosorbide-2-aspirinate-5-nicotinate] registered a chromatographic logP in the series “physchem” of 4.1. Also, in the series “physchem” (40% MeOH in water), the Rf is 0.0460 and the Rm is given as 1.3168. Moreover, in “physchem” (50% MeOH in water), the Rf was determined as 0.1200 and the Rm is 0.8653. Also, in “physchem” (60% MeOH in water), the Rf is 0.2730 and the Rm is 0.4254. Moreover, in the series “physchem” (theoretical Rm at 0% organic modifier), the “Extrapolated Rm (y value)” value was 3.0977. In addition, in the series on Aldara-treated mice (0.5% topical, relative to Vehicle-treated mice), the PASI scores entry was “significantly lower on days 3 (P<0.05) and 4 (P<0.01)”. Moreover, in the series with Aldara-treated mice (0.5 or 5% topical, vs Vehicle), the erythema score entry was “significant, and dose-dependent, reductions”; the scaling score entry is “significant, and dose-dependent, reductions”; the skin thickness score entry was “significant, and dose-dependent, reductions”. In the series on Aldara-treated mice (2%), the “efficacy in the ALDARA model” value is “effective”. In the series with Aldara-treated mice (higher dose (5%) topical, vs Vehicle), the “skin inflammation (PASI score)” value was “reduced skin inflammation on days 3-5 (P<0.01-0.001)”. Further, in the series with Aldara-treated mice (topical in white petroleum jelly, two separate experiments (3%; 0.5 or 5%), vs Vehicle), the “progressive development of psoriasis-like skin inflammation” value is “significantly (P<0.05-0.001) reduced”. Also, the “number of IL-17 expressing cells” value in series [1] is reported as “inhibitory effect”. In series [1] (50 μM), the “percentage of TNF-alpha expressing cells” value is “reduced”. Moreover, in series [1] (setting [2]), the GM-CSF entry was “appreciable effect” and the IL-2 entry was “not to have any appreciable effect”. In series [1] (in comparison to control), the “percentage of IFN-gamma expressing cells” value was “significantly reduced”. In the series on Primary human DC, the IL-10 result is “no appreciable effect”. Besides, in the series on normal healthy skin (2%), the “cumulative irritancy score (irritancy/erythema)” value is reported as “did not cause irritancy/erythema”. Besides, the erythema/irritation result in the series on normal healthy skin (2% in petroleum jelly, 1 hour after application) is on record as “did not cause erythema/irritation”. Besides, the temporal erythema response entry with normal healthy skin (5% in petroleum jelly) is on record as “resolved rapidly”.
